One experiment deals with Histone deacetylase 1 (Homo sapiens, UniProt Q13547). The experiment is described as follows: Inhibition of human HDAC1 after 15 mins by trypsin-coupled fluorescence assay.
The species entered for experiment [1] is Homo sapiens. As to the kind of experiment: Selectivity index, ratio of IC50 for human HDAC10 to IC50 for human HDAC6.
For a further experiment, the target named is T1, Histone deacetylase 7 (Homo sapiens, UniProt Q8WUI4).
T1 sequence (Q8WUI4 whole entry): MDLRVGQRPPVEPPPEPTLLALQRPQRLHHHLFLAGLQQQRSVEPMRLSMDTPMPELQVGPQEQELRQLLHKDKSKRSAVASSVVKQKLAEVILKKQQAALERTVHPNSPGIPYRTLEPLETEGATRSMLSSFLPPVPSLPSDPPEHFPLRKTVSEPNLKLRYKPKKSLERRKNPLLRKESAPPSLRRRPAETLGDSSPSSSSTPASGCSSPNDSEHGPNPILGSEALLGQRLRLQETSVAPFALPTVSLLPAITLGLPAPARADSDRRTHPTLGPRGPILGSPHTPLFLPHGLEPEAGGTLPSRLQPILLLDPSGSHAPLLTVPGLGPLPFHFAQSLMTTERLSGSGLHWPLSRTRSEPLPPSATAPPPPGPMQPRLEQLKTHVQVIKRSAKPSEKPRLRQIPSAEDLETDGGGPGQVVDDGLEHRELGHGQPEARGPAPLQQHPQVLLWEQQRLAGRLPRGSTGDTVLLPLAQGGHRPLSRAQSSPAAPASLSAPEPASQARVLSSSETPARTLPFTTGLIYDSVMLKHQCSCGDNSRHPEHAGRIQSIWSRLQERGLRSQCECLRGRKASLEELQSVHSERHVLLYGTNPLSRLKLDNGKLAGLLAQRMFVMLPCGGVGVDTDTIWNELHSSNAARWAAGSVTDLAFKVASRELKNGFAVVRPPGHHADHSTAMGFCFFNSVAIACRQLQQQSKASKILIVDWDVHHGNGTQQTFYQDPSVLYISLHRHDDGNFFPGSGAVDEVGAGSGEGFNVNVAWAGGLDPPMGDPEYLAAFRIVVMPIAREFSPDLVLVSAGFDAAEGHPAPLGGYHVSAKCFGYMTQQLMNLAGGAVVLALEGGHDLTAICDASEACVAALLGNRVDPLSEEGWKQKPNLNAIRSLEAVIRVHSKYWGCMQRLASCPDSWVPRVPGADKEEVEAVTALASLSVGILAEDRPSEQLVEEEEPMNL
The experiment is described as follows: Inhibition of human HDAC7 after 15 mins by trypsin-coupled fluorescence assay.

The target of experiment [2] is T2, Protein deacetylase HDAC6 (Homo sapiens, UniProt Q9UBN7).
T2 sequence (Q9UBN7 whole entry): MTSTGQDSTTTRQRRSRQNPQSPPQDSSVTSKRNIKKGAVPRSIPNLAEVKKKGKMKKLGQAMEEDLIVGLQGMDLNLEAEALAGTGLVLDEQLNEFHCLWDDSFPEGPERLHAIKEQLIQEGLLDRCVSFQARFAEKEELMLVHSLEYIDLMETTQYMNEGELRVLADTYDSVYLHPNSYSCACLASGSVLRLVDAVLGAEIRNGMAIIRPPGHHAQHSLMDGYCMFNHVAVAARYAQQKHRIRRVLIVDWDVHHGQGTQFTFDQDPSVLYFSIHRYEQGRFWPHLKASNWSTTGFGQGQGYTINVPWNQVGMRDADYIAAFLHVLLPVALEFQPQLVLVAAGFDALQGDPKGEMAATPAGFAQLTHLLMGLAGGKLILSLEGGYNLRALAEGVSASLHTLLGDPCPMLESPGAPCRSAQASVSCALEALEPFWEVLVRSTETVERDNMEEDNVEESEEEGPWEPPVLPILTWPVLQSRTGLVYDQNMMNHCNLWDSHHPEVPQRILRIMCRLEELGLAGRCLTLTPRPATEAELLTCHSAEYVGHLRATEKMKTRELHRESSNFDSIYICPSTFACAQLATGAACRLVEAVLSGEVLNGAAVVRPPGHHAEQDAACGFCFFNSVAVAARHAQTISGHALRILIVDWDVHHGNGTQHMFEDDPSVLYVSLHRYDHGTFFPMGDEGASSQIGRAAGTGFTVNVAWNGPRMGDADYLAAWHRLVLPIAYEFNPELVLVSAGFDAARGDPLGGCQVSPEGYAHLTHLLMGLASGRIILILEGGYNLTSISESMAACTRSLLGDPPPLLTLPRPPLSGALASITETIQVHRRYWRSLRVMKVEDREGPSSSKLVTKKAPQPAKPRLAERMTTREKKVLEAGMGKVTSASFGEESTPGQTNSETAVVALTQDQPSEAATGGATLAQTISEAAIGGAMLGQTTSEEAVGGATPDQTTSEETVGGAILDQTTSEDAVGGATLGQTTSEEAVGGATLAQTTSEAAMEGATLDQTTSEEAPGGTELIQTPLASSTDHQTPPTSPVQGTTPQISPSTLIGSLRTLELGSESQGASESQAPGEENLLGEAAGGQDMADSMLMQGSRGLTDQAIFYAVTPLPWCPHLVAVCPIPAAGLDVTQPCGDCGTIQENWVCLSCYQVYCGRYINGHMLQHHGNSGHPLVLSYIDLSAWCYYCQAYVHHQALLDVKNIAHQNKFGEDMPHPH
As to the kind of experiment: Inhibition of human HDAC6 after 15 mins by trypsin-coupled fluorescence assay.

Experiment [3] is filed under the species Homo sapiens. The experiment is described as follows: Selectivity index, ratio of IC50 for human HDAC3 to IC50 for human HDAC6.
Another experiment deals with Histone deacetylase 2 (Homo sapiens, UniProt Q92769). The experiment is described as follows: Inhibition of human HDAC2 after 15 mins by trypsin-coupled fluorescence assay.
Histone deacetylase 2, sequence (Q92769 whole entry): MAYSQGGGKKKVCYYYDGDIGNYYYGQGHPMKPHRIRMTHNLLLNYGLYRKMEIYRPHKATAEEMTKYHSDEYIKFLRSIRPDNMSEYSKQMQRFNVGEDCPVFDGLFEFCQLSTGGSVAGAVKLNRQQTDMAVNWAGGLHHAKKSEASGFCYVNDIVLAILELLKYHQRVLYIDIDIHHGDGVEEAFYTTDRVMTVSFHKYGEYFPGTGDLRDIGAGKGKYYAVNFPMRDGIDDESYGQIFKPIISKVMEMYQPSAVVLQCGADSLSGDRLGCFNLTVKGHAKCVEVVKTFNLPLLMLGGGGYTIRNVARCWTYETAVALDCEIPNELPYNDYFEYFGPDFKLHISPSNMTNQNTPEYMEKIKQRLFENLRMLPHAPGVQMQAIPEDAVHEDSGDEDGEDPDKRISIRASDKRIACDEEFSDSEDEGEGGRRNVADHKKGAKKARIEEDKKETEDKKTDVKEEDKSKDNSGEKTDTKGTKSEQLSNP
The species entered for experiment [4] is Homo sapiens. As to the kind of experiment: Selectivity index, ratio of IC50 for human HDAC4 to IC50 for human HDAC6.
For experiment [5], the species on record is Homo sapiens. The experiment is described as follows: Selectivity index, ratio of IC50 for human HDAC1 to IC50 for human HDAC6.
The species entered for experiment [6] is Homo sapiens. The experiment is described as follows: Selectivity index, ratio of IC50 for human HDAC8 to IC50 for human HDAC6.
The species named for experiment [7] is Homo sapiens. As to the kind of experiment: Selectivity index, ratio of IC50 for human HDAC9 to IC50 for human HDAC6.
The species named for experiment [8] is Homo sapiens. The experiment is described as follows: Selectivity index, ratio of IC50 for human HDAC7 to IC50 for human HDAC6.
The species named for experiment [9] is Homo sapiens. As to the kind of experiment: Selectivity index, ratio of IC50 for human HDAC5 to IC50 for human HDAC6.

Molecules are shown by their SMILES.

Histone deacetylase 1, sequence (Q13547 whole entry): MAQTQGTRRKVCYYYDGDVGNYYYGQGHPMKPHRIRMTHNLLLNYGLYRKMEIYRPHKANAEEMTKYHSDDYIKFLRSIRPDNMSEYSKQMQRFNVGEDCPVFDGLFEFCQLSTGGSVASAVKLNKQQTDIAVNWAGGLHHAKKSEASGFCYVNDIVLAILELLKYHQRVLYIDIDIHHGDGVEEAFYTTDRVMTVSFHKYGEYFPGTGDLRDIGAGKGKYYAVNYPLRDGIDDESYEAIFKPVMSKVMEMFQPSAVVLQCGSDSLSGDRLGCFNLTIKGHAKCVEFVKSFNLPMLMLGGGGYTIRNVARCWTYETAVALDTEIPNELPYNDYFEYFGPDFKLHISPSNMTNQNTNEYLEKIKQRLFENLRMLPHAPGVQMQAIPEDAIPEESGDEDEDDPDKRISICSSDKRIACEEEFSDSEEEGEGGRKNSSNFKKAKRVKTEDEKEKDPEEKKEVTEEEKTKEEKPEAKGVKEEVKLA

The term IC50 denotes the concentration that inhibits the measured activity by half. A lower IC50 goes with higher potency. `O=C(NO)c1ccc(CN(CCO)C(=O)Cc2ccccc2)cc1`: the IC50 was 800 nM against Histone deacetylase 1, 1100 nM on Histone deacetylase 7, 25 nM in experiment [2] and 2200 nM on Histone deacetylase 2. Also, the Ratio IC50 in the experiment filed under Homo sapiens [1], in the experiment listed under Homo sapiens [3], in the experiment listed under Homo sapiens [4], in the experiment filed under Homo sapiens [5], in the experiment listed under Homo sapiens [6] and in the experiment filed under Homo sapiens [7] was 15 to 400 each time. Besides, the Ratio IC50 in the experiment listed under Homo sapiens [8] and in the experiment filed under Homo sapiens [9] was 15 to 400 throughout.

Values taken from ChEMBL document CHEMBL4033665, “Synthesis and applications of benzohydroxamic acid-based histone deacetylase inhibitors” (Eur J Med Chem, 2017).
